This is an account of results in patent US7314867B2, “Pharmaceutical composition comprising a retro-iverso isomer peptide” (priority 2002, dated 2008).

This test concerns serum triglyceride levels in male ICR mice. The test can be described thus: Oral administration of peptides to determine inhibition of serum triglyceride level elevation after olive oil feeding. It is filed as in vivo. The note with it: for Serum Triglyceride: male ICR mice fasted overnight, olive oil 250 mg by gastric intubation, peptide 1.0 mg/mouse orally one hour after lipid, blood collected after two hours; for % Decrease (serum triglyceride) / Activity in lowering elevated serum triglyceride levels compared with the corresponding natural reference peptide: male ICR mice, peptide 1.0 mg/mouse orally; for % Decrease (serum triglyceride): olive oil 250 mg, versus Olive Oil Only; for Activity in lowering elevated serum triglyceride levels compared with the corresponding natural reference peptide: olive oil load, comparison in words. As to the method: Olive oil (250 mg) was administered via gastric intubation to male ICR mice (6-week old, body weight: 20 g), which were fasted overnight. The peptides were dissolved in 0.1 ml saline solution and administered orally one hour after lipid administration. For the control group, 0.1 ml of saline solution was administered per mouse. After two hours, blood was collected from the orbital vein under ether anesthesia and the serum was separated by centrifugation (3000 rpm, 30 min, 1° C.). Serum triglyceride levels were assayed using commercially available methods (e.g. INFINITY (Registered Trade Mark) triglycerides reagent; Sigma Chemical Co.). The results were compared with L-Val-L-Val-L-Tyr-L-Pro (Reference Peptide 1), L-Val-L-Tyr-L-Pro (Reference Peptide 2), and L-Val-L-Thr-L-Leu (Reference Peptide 3) and shown in Table 1.

“Also recorded” adds a separate entry of the source.

Turning to “D-Leu D-Thr D-Val C-NH2 [Retro Inverso Polypeptide 3]”, the “Serum Triglyceride” value was determined as 294.6 ± 33.8 mg/100 ml; the “% Decrease (serum triglyceride)” value amounted to 28.7%; the “Activity in lowering elevated serum triglyceride levels compared with the corresponding natural reference peptide” value is “higher activities in lowering elevated serum triglyceride levels than Reference 2 and 3, respectively”. Further, under “listed as D-Leu D-Thr D-Val”, the “Activity in lowering elevated serum triglyceride levels compared with the corresponding natural reference peptide” value is recorded as “substantially exceed the activity of the corresponding natural oligopeptide”.
On to “D-Pro D-Tyr D-Val C-NH2 [Retro Inverso Polypeptide 2]”, for which the “Serum Triglyceride” value came to 231.8 ± 27.6 mg/100 ml, the “% Decrease (serum triglyceride)” value is 50.8% and the “Activity in lowering elevated serum triglyceride levels compared with the corresponding natural reference peptide” value was “substantially exceed the activity of the corresponding natural oligopeptide”.
Take “L-Val-L-Tyr-L-Pro [Ref. Peptide 2, reference compound]”: the “Serum Triglyceride” value was found to be 407.7 ± 42.0 mg/100 ml and the “% Decrease (serum triglyceride)” value is 0%.
Take “L-Val-L-Val-L-Tyr-L-Pro [Ref. Peptide 1, reference compound]”: the “Serum Triglyceride” value worked out at 244.7 ± 25.5 mg/100 ml and the “% Decrease (serum triglyceride)” value came out at 46.3%.
With “L-Val-L-Thr-L-Leu [Ref. Peptide 3, reference compound]”, the “Serum Triglyceride” value was 352.7 ± 35.6 mg/100 ml and the “% Decrease (serum triglyceride)” value came to 8.3%.
With “D-Pro D-Tyr D-Val D-Val C-NH2 [Retro Inverso Polypeptide 1]”, the “Serum Triglyceride” value amounted to 313.7 ± 45.9 mg/100 ml; the “% Decrease (serum triglyceride)” value is 22.0%; the “Activity in lowering elevated serum triglyceride levels compared with the corresponding natural reference peptide” value was “higher activities in lowering elevated serum triglyceride levels than Reference 2 and 3, respectively; also recorded: about half of Reference Peptide 1”.
